Source: US10688099B2, “Methods for modulating the amount of RNA transcripts” (PTC Therapeutics, Inc., priority 2013, dated 2020)

Tested on: RNA isoforms in PNN 1-46 SMA type I patient-derived fibroblasts
Assay: RNA Abundance Modulation (RNA isoform abundance, iFPM, HiSeq RNA sequencing)
Format: cell-based, human
Settings: 3 μM
Procedure: Cells from a cell line of interest are cultured in conditions sufficient to yield the number of cells capable of generating enough RNA for subsequent sequencing steps. Cells from the tested cell line are contacted with a compound described herein.
To culture said cells, they are seeded, at appropriate concentrations in a volume of media in a cell culture container and incubated for 4, 5, 6, 7, 8, 9, 10, or more hours. A concentrated solution of compound in a vehicle (e.g., DMSO) is then added in sufficient volume to result in the intended final concentration of the compound, for example 100 nM, 500 nM, 1 μM, 5 μM, 10 μM, 15 μM, 20 μM, or more. The cells may also be treated with vehicle alone, as a control. A number of replicates of each concentration or control may be made (e.g., 2 replicates). The cells are then incubated at a constant temperature appropriate for cell culture of the particular cell line (e.g., 37° C.) for 6, 12, 18, 24, 48, or more hours. After incubation, the growth medium is removed and the cells are washed with the appropriate buffer (e.g., PBS). Cells are then removed from adherence to the cell culture container by treatment with a solution containing trypsin, and the trypsin subsequently quenched with the appropriate volume of buffer (e.g., DMEM-FBS). The cells are then pelleted with gentle centrifugation (e.g., ≤90×g centrifugal force) and resuspended in a buffer to lyse the cells for extraction of RNA. The cell lysates may then be frozen (e.g., at −80° C.) or, alternately, may immediately be used in a procedure to purify the RNA (e.g. by use of the RNEASY PLUS® minikit). The RNA from cell lysates is eluted in the appropriate volume of buffer (e.g., RNEASE-FREE H2O®). The resulting purified RNA may then be sequenced (e.g., using RNASeq) or analyzed using a human exon array (e.g., by GENECHIP® human exon array) to determine changes in the RNA levels in those cells treated with compound compared to those cells treated only with DMSO. The purified RNA may also be quantified by other methods known in the art.
Using the RNA data obtained from sequencing, exon array, or other methods, a statistical analysis can reveal changes in the RNA levels of compound-treated compared with control. For example, t-test p-values may be calculated for the data obtained through sequencing and exon array methods in order to compare compound-treated cells to those treated with the DMSO control. […] Analysis of the sequencing and exon array data may then also yield predictions about the cause of the aberrant amount of an RNA transcript in the cells (e.g., perturbation of RNA splicing, RNA transcription, or RNA stability). These predictions may be further confirmed by methods known in the art. For example, RT-PCR and RT-qPCR may be used to confirm the change in amount of RNA transcripts for one or more particular transcripts of interest.
Following the methods described above in Example 1, PNN 1-46 SMA type I patient-derived fibroblasts were treated with 300 nM or 3 μM Compounds 774 and 808 in 0.5% DMSO.
700,000 cells were seeded in 10 mL of medium (DMEM plus 10% FBS) in a T-75 flask. Cells were allowed to attach for at least 4 hrs, after which 50 μL of a 200× compound solution (100% DMSO) was added to each well, and the plate was incubated at 37° C. for 24 hrs.
At the end of the incubation period, the supernatant was removed and the cells where washed with PBS. TrypLE (Invitrogen) express solution was added (e.g. 1.5 mL per one T75 flask). The flasks were incubated for 3 to 5 min at 37° C. The trypsin was then quenched, e.g., by adding 10 mL DMEM-FBS.
Next, the cells were pelleted using gentle centrifugation without exceeding 90×g centrifugal force. The supernatant was removed and the cell pellet was re-suspended in 600 μL RLT buffer (the RLT buffer was supplemented with beta-mercaptoethanol according to the RNeasy protocol manual) by pipetting up and down until the pellet was completely dissolved […]

Question: With `CCc1nc(C)cn2nc(-c3cc(=O)n4cc(C5CCN(C)CC5)cc(C)c4n3)cc12` [Compound 774] as the compound, how does the “L2FC (x + 1)” value (UBE2V1 NM_022442) read?
Answer: −1.807

Question: And the “L2abs (Cpd-DMSO)” value (UBE2V1 NM_022442)?
Answer: 1.32

Question: What about the “abs (Cpd-DMSO)” value (UBE2V1 NM_022442) of the same compound?
Answer: 2 iFPM

Question: And the “amp FC (x + 1)” value (UBE2V1 NM_022442)?
Answer: 3.50

Question: What about the “ave Cpd” value (UBE2V1 NM_022442) of the same compound?
Answer: 0 iFPM

Question: And the “FC (x + 1)” value (UBE2V1 NM_199144)?
Answer: 9.0627

Question: And the “L2FC (x + 1)” value (UBE2V1 NM_199144)?
Answer: 3.180

Question: And the “L2abs (Cpd-DMSO)” value (UBE2V1 NM_199144)?
Answer: 3.01

Question: And the “abs (Cpd-DMSO)” value (UBE2V1 NM_199144)?
Answer: 8 iFPM

Question: What about the “amp FC (x + 1)” value (UBE2V1 NM_199144) of the same compound?
Answer: 9.06

Question: What about the “ave Cpd” value (UBE2V1 NM_199144) of the same compound?
Answer: 8 iFPM

Question: What about the “FC (x + 1)” value (UBE2V1 NM_001032288) of the same compound?
Answer: 1.0807

Question: What about the “L2FC (x + 1)” value (UBE2V1 NM_001032288) of the same compound?
Answer: 0.112

Question: What about the “L2abs (Cpd-DMSO)” value (UBE2V1 NM_001032288) of the same compound?
Answer: 8.47

Question: What about the “abs (Cpd-DMSO)” value (UBE2V1 NM_001032288) of the same compound?
Answer: 355 iFPM

Question: What about the “amp FC (x + 1)” value (UBE2V1 NM_001032288) of the same compound?
Answer: 1.08

Question: And the “ave Cpd” value (UBE2V1 NM_001032288)?
Answer: 4751 iFPM

Question: What about the “FC (x + 1)” value (UBE2V1 NM_001257393) of the same compound?
Answer: 0.0796

Question: What about the “L2FC (x + 1)” value (UBE2V1 NM_001257393) of the same compound?
Answer: −3.651

Question: And the “L2abs (Cpd-DMSO)” value (UBE2V1 NM_001257393)?
Answer: 3.53

Question: What about the “abs (Cpd-DMSO)” value (UBE2V1 NM_001257393) of the same compound?
Answer: 12 iFPM

Question: What about the “amp FC (x + 1)” value (UBE2V1 NM_001257393) of the same compound?
Answer: 12.56

Question: What about the “ave Cpd” value (UBE2V1 NM_001257393) of the same compound?
Answer: 0 iFPM

Question: And the “FC (x + 1)” value (UBE2V1 NM_001257394)?
Answer: 0.1697

Question: And the “L2FC (x + 1)” value (UBE2V1 NM_001257394)?
Answer: −2.559

Question: What about the “L2abs (Cpd-DMSO)” value (UBE2V1 NM_001257394) of the same compound?
Answer: 4.01

Question: What about the “abs (Cpd-DMSO)” value (UBE2V1 NM_001257394) of the same compound?
Answer: 16 iFPM

Question: And the “amp FC (x + 1)” value (UBE2V1 NM_001257394)?
Answer: 5.89

Question: And the “ave Cpd” value (UBE2V1 NM_001257394)?
Answer: 2 iFPM

Question: And the “FC (x + 1)” value (UBE2V1 NM_001257397)?
Answer: 0.5713

Question: What about the “L2FC (x + 1)” value (UBE2V1 NM_001257397) of the same compound?
Answer: −0.808

Question: And the “L2abs (Cpd-DMSO)” value (UBE2V1 NM_001257397)?
Answer: 3.18

Question: What about the “abs (Cpd-DMSO)” value (UBE2V1 NM_001257397) of the same compound?
Answer: 9 iFPM

Question: And the “amp FC (x + 1)” value (UBE2V1 NM_001257397)?
Answer: 1.75

Question: And the “ave Cpd” value (UBE2V1 NM_001257397)?
Answer: 11 iFPM

Question: What about the “FC (x + 1)” value (UBE2V1 NM_001257399) of the same compound?
Answer: 1.1595

Question: What about the “L2FC (x + 1)” value (UBE2V1 NM_001257399) of the same compound?
Answer: 0.214

Question: What about the “L2abs (Cpd-DMSO)” value (UBE2V1 NM_001257399) of the same compound?
Answer: 4.66

Question: And the “abs (Cpd-DMSO)” value (UBE2V1 NM_001257399)?
Answer: 25 iFPM

Question: And the “amp FC (x + 1)” value (UBE2V1 NM_001257399)?
Answer: 1.16

Question: And the “ave Cpd” value (UBE2V1 NM_001257399)?
Answer: 182 iFPM

Question: What about the “FC (x + 1)” value (UBE2V1 NR_047554) of the same compound?
Answer: 0.0730

Question: And the “L2FC (x + 1)” value (UBE2V1 NR_047554)?
Answer: −3.777

Question: And the “L2abs (Cpd-DMSO)” value (UBE2V1 NR_047554)?
Answer: 8.39

Question: And the “abs (Cpd-DMSO)” value (UBE2V1 NR_047554)?
Answer: 337 iFPM

Question: And the “amp FC (x + 1)” value (UBE2V1 NR_047554)?
Answer: 13.71

Question: And the “ave Cpd” value (UBE2V1 NR_047554)?
Answer: 25 iFPM

Question: What about the “FC (x + 1)” value (UBE2V1 NR_047555) of the same compound?
Answer: 0.9261

Question: What about the “L2FC (x + 1)” value (UBE2V1 NR_047555) of the same compound?
Answer: −0.111

Question: And the “L2abs (Cpd-DMSO)” value (UBE2V1 NR_047555)?
Answer: −1.09

Question: What about the “abs (Cpd-DMSO)” value (UBE2V1 NR_047555) of the same compound?
Answer: 0 iFPM

Question: And the “amp FC (x + 1)” value (UBE2V1 NR_047555)?
Answer: 1.08

Question: And the “ave Cpd” value (UBE2V1 NR_047555)?
Answer: 5 iFPM

Question: And the “FC (x + 1)” value (UBE2V1 NR_047556)?
Answer: 0.5268

Question: What about the “L2FC (x + 1)” value (UBE2V1 NR_047556) of the same compound?
Answer: −0.925

Question: And the “L2abs (Cpd-DMSO)” value (UBE2V1 NR_047556)?
Answer: 3.88

Question: What about the “abs (Cpd-DMSO)” value (UBE2V1 NR_047556) of the same compound?
Answer: 15 iFPM

Question: And the “amp FC (x + 1)” value (UBE2V1 NR_047556)?
Answer: 1.90

Question: And the “ave Cpd” value (UBE2V1 NR_047556)?
Answer: 15 iFPM

Question: And the “FC (x + 1)” value (UCHL5 AK225794)?
Answer: 0.7328

Question: And the “L2FC (x + 1)” value (UCHL5 AK225794)?
Answer: −0.448

Question: What about the “L2abs (Cpd-DMSO)” value (UCHL5 AK225794) of the same compound?
Answer: 3.79

Question: And the “abs (Cpd-DMSO)” value (UCHL5 AK225794)?
Answer: 14 iFPM

Question: What about the “amp FC (x + 1)” value (UCHL5 AK225794) of the same compound?
Answer: 1.36

Question: What about the “ave Cpd” value (UCHL5 AK225794) of the same compound?
Answer: 37 iFPM

Question: What about the “FC (x + 1)” value (UCHL5 AK316064) of the same compound?
Answer: 1.3941

Question: What about the “L2FC (x + 1)” value (UCHL5 AK316064) of the same compound?
Answer: 0.479

Question: What about the “L2abs (Cpd-DMSO)” value (UCHL5 AK316064) of the same compound?
Answer: 4.93

Question: What about the “abs (Cpd-DMSO)” value (UCHL5 AK316064) of the same compound?
Answer: 30 iFPM

Question: And the “ave Cpd” value (UCHL5 AK316064)?
Answer: 106 iFPM

Question: And the “FC (x + 1)” value (UCHL5 BC015381)?
Answer: 1.2220

Question: And the “L2FC (x + 1)” value (UCHL5 BC015381)?
Answer: 0.289

Question: And the “L2abs (Cpd-DMSO)” value (UCHL5 BC015381)?
Answer: 1.34

Question: What about the “abs (Cpd-DMSO)” value (UCHL5 BC015381) of the same compound?
Answer: 3 iFPM

Question: And the “ave Cpd” value (UCHL5 BC015381)?
Answer: 13 iFPM
